Source: patent US4229435A, “Preparation of blood fraction” (priority 1978, dated 1980)

Experiments:
Type in all cases: biochemical
Conditions in all cases: 5 min 37° C., then iodoacetic acid
F II = target: T1, F II (Homo sapiens, UniProt P00734); test: Coagulation factor II activity in plasma after reducing agent + iodoacetic acid
T1 construct: from tissue; host or cells: human citrated blood plasma
Description: (§1) Human blood with anti-coagulating agent (9 parts blood+1 part 3.8% trisodium citrate) is centrifuged and the following tests with plasma were carried out:
(§2) The plasma is divided into 8 ml portions, which are preheated at 37° C. for 5 min. DTT is added in different concentrations, see table 1 below, and is incubated for 5 min. at 37° C. Then iodoacetic acid, 3 mol per mol DTT, is added, and incubation takes place for 15 min. at 37° C. The plasma samples are distributed in portions of about 0.2 ml and are immediately frozen at -70° C. Testing of different coagulation factors is made in known manner.
(§3) The plasma is divided into 8 ml portions, which are preheated at 37° C. for 5 min. DTE is added in different concentrations (see table 2), and is incubated for 5 minutes at 37° C. Then, iodoacetic acid (3 mol per mol DTE) is added and incubation is carried out for 15 minutes at 37° C. The plasma samples are distributed in portions of about 0.2 ml and are immediately frozen at -70° C. Testing of different coagulation factors is made in a manner known per se.
as §3, with “minutes. Lipoic acid” for “min. DTE”, “3),” for “2),”, “lipoic acid)” for “DTE)”
as §3, with “minutes. Mercaptoethanol” for “min. DTE”, “4),” for “2),”, “mercaptoethanol)” for “DTE)”
as §3, with “minutes. Potassium borohydride” for “min. DTE”, “5,” for “2),”, “potassium borohydride)” for “DTE)”

F V = target: T2, F V (Homo sapiens, UniProt P12259); test: Coagulation factor V activity in plasma after reducing agent + iodoacetic acid
T2 construct: from tissue; host or cells: human citrated blood plasma
Description: as §1, §2, §3
as §3, with “minutes. Lipoic acid” for “min. DTE”, “3),” for “2),”, “lipoic acid)” for “DTE)”
as §3, with “minutes. Mercaptoethanol” for “min. DTE”, “4),” for “2),”, “mercaptoethanol)” for “DTE)”
as §3, with “minutes. Potassium borohydride” for “min. DTE”, “5,” for “2),”, “potassium borohydride)” for “DTE)”

F VII = target: T3, F VII (Homo sapiens, UniProt P08709); test: Coagulation factor VII activity in plasma after reducing agent + iodoacetic acid
T3 construct: from tissue; host or cells: human citrated blood plasma
T3 sequence (P08709 61-466): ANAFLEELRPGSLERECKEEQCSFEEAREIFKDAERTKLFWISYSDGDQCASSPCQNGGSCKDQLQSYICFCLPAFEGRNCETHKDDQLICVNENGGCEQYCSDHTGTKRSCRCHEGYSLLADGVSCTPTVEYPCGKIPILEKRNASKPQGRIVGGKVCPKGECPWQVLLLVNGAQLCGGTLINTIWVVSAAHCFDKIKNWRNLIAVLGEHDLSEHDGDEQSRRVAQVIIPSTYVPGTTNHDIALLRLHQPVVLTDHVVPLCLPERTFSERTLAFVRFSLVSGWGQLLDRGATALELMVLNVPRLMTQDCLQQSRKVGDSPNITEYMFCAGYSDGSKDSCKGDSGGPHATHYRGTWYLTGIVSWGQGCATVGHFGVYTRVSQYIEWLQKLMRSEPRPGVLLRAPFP
Description: as §1, §2, §3
as §3, with “minutes. Lipoic acid” for “min. DTE”, “3),” for “2),”, “lipoic acid)” for “DTE)”
as §3, with “minutes. Mercaptoethanol” for “min. DTE”, “4),” for “2),”, “mercaptoethanol)” for “DTE)”
as §3, with “minutes. Potassium borohydride” for “min. DTE”, “5,” for “2),”, “potassium borohydride)” for “DTE)”

F IX = target: T4, F IX (Homo sapiens, UniProt P00740); test: Coagulation factor IX activity in plasma after reducing agent + iodoacetic acid
T4 construct: from tissue; host or cells: human citrated blood plasma
Description: as §1, §2, §3
as §3, with “minutes. Lipoic acid” for “min. DTE”, “3),” for “2),”, “lipoic acid)” for “DTE)”
as §3, with “minutes. Mercaptoethanol” for “min. DTE”, “4),” for “2),”, “mercaptoethanol)” for “DTE)”
as §3, with “minutes. Potassium borohydride” for “min. DTE”, “5,” for “2),”, “potassium borohydride)” for “DTE)”

F X = target: T5, F X (Homo sapiens, UniProt P00742); test: Coagulation factor X activity in plasma after reducing agent + iodoacetic acid
T5 construct: from tissue; host or cells: human citrated blood plasma
Description: as §1, §2, §3
as §3, with “minutes. Lipoic acid” for “min. DTE”, “3),” for “2),”, “lipoic acid)” for “DTE)”
as §3, with “minutes. Mercaptoethanol” for “min. DTE”, “4),” for “2),”, “mercaptoethanol)” for “DTE)”
as §3, with “minutes. Potassium borohydride” for “min. DTE”, “5,” for “2),”, “potassium borohydride)” for “DTE)”

[1] = human, 0.1 mg reducing agent/ml plasma (sample C)
[2] = 0.1 mg reducing agent/ml plasma (sample C)
[3] = human, 0.6 mg reducing agent/ml plasma
[4] = human, Table 1 sample D, 0.1 mg DTT/ml plasma
[5] = plasma + 0.14 mg reducing agent
[6] = plasma + 0.28 mg reducing agent

T4 sequence (P00740 47-461): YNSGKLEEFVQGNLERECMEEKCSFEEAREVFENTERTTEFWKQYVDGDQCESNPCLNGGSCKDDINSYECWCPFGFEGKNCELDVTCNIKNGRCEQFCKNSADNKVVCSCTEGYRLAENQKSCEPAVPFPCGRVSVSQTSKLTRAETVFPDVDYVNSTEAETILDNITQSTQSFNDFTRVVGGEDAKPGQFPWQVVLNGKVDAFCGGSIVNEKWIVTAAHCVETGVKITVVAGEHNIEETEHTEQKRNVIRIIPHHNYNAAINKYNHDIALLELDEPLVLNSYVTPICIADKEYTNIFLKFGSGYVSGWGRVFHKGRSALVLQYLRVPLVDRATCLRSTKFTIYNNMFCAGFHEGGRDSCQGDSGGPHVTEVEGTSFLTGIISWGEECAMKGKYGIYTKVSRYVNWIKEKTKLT
T5 sequence (P00742 235-488 limits assumed): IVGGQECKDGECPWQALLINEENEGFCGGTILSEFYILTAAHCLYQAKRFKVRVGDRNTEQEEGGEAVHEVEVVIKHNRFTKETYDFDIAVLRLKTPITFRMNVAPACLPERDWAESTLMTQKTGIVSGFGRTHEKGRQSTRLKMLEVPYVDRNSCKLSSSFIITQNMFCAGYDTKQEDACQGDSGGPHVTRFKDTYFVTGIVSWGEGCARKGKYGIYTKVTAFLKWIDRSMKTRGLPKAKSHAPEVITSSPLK
T5 sequence (P00742 41-179 limits assumed): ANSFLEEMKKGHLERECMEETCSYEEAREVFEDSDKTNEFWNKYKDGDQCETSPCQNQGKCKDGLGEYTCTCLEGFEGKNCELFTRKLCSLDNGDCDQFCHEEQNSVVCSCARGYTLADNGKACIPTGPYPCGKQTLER
T2 sequence (P12259 29-2224): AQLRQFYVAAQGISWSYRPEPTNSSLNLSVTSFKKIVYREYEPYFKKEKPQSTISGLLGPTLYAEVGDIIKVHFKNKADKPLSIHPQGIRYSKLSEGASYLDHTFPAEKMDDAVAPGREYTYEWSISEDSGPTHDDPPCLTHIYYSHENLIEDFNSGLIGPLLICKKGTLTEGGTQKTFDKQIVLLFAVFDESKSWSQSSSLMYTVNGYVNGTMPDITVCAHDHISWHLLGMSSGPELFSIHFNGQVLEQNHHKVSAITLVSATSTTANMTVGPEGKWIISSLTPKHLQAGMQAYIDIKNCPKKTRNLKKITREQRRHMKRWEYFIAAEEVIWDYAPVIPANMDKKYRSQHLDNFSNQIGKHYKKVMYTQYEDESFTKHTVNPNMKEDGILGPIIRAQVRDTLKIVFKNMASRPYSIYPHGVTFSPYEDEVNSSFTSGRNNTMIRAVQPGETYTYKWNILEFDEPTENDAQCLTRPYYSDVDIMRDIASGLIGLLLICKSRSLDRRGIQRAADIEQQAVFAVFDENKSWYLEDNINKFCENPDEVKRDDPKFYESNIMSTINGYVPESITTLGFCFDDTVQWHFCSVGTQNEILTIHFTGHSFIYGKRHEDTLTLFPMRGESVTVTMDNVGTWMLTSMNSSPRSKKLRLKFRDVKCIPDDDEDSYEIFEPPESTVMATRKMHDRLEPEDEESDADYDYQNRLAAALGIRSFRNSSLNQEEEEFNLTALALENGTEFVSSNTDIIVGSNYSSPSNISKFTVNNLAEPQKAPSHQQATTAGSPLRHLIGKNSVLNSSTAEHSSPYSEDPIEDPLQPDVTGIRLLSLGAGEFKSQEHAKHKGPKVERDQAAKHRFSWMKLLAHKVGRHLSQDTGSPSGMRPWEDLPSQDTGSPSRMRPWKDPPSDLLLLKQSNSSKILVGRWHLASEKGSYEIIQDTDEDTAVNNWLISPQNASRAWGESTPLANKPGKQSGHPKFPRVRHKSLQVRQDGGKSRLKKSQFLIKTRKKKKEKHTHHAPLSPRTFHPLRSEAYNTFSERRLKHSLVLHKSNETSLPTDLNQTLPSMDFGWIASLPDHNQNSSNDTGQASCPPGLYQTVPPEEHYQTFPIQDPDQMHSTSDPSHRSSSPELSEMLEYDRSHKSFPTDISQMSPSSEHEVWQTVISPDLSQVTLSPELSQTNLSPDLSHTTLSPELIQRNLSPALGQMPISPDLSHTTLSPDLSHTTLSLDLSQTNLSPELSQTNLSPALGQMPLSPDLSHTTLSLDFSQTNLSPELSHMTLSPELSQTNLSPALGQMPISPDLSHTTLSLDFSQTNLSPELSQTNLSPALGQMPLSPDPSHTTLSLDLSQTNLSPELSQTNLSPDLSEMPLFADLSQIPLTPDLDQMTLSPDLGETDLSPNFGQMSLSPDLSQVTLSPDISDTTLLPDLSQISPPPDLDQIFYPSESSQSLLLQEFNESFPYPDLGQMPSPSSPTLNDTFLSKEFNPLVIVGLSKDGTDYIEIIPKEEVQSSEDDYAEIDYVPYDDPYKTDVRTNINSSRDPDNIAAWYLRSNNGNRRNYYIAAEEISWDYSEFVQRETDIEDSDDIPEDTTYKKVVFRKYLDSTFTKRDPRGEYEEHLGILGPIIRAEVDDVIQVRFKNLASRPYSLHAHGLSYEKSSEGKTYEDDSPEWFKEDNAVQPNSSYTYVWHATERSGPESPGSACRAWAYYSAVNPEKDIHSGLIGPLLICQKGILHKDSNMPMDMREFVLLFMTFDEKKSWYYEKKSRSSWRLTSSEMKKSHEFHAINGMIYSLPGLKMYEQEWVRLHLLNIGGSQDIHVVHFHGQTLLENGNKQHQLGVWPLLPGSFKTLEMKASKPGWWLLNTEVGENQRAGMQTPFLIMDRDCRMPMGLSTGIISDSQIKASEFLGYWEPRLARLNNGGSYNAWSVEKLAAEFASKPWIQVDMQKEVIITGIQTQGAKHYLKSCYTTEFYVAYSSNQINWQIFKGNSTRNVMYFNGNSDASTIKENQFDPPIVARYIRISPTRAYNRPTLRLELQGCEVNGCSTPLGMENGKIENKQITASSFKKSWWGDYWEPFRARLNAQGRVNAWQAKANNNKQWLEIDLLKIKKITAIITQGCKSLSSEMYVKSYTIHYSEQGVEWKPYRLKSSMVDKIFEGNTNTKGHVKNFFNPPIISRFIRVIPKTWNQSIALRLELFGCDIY

| activity at 100 µg/mL (F II; [1]) | Coagulation factor F II (F II; plasma + 0.2 mg reducing agent) | Coagulation factor F II (F II; plasma + 0.4 mg reducing agent) | Coagulation factor F V (F V; [2]) | Coagulation factor F V (F V; plasma + 0.2 mg reducing agent) | Coagulation factor F V (F V; plasma + 0.4 mg reducing agent) | activity at 100 µg/mL (F VII; [1]) | Coagulation factor F VII (F VII; plasma + 0.2 mg reducing agent) | Coagulation factor F VII (F VII; plasma + 0.4 mg reducing agent) | activity at 100 µg/mL (F IX; [1]) | Coagulation factor F IX (F IX; plasma + 0.2 mg reducing agent) | Coagulation factor F IX (F IX; plasma + 0.4 mg reducing agent) | activity at 100 µg/mL (F X; [1]) | Coagulation factor F X (F X; plasma + 0.2 mg reducing agent) | Coagulation factor F X (F X; plasma + 0.4 mg reducing agent) | other results | Compound |
| --- | --- | --- | --- | --- | --- | --- | --- | --- | --- | --- | --- | --- | --- | --- | --- | --- |
| 90% | 66 % of control | 35 % of control | 99 % of control | 99 % of control | 90 % of control | 61% | 30 % of control | 48 % of control | 61% | 28 % of control | 19 % of control | 56% | 11 % of control | 2 % of control | – | O[C@H](CS)[C@@H](O)CS [DTE, dithioerythritol] |
| 101% | – | 41 % of control | 94 % of control | – | 85 % of control | 87% | – | 6 % of control | 129% | – | 8 % of control | 59% | – | 0 % of control | activity at 600 µg/mL (F II; [3]): 33%; activity at 100 µg/mL (F II; [4]): 69%; Coagulation factor F V (F V; 0.6 mg reducing agent/ml plasma): 90 % of control; Coagulation factor F V (F V; Table 1 sample D, 0.1 mg DTT/ml plasma): 90 % of control; activity at 600 µg/mL (F VII; [3]): 0%; activity at 100 µg/mL (F VII; [4]): 21%; activity at 600 µg/mL (F IX; [3]): 0%; activity at 100 µg/mL (F IX; [4]): 16%; activity at 600 µg/mL (F X; [3]): 0%; activity at 100 µg/mL (F X; [4]): 6% | O[C@H](CS)[C@H](O)CS [DTT, dithiothreitol] |
| – | – | – | – | – | – | – | – | – | – | – | – | – | – | – | Coagulation factor F II (F II; [5]): 92 % of control; Coagulation factor F II (F II; [6]): 96 % of control; Coagulation factor F V (F V; [5]): 74 % of control; Coagulation factor F V (F V; [6]): 93 % of control; Coagulation factor F VII (F VII; [5]): 131 % of control; Coagulation factor F VII (F VII; [6]): 127 % of control; Coagulation factor F IX (F IX; [5]): 77 % of control; Coagulation factor F IX (F IX; [6]): 71 % of control; Coagulation factor F X (F X; [5]): 86 % of control; Coagulation factor F X (F X; [6]): 68 % of control | [BH4-].[K+] [KBH4, potassium borohydride] |
| 100% | 103 % of control | 103 % of control | 100 % of control | 91 % of control | 215 % of control | 252% | 203 % of control | 285 % of control | 58% | 52 % of control | 58 % of control | 40% | 26 % of control | 32 % of control | – | O=C(O)CCCCC1CCSS1 (stereo not shown) [lipoic acid] |
| – | 89 % of control | 74 % of control | – | 61 % of control | 84 % of control | – | 69 % of control | 29 % of control | – | 33 % of control | 35 % of control | – | 75 % of control | 37 % of control | – | OCCS [mercaptoethanol] |
